From article PMC2845622, “An Expanded Self-Antigen Peptidome Is Carried by the Human Lymph As Compared to the Plasma” (PLoS ONE, 2010)
Where two headings read alike, the source gives them in different places. Ends that are not written are not given here.

Experiments:
[1] = target: HLA-DR4 (HLA-DRA*0101,-DRB1*0401) (Homo sapiens, UniProt P01903+P01911, A100K/A169T/F76Y/I96L/K127E/L162R/M171V/N62H/P40V/Q125Y/R42H/S133A/S149N/S66Y/V115G/V209L/W38E); experiment: Competition fluorescence polarization peptide binding assay, HLA-DR4 with HLA-DM
[2] = test system: lymph node T cells of HLA-DR1 or HLA-DR4 transgenic mice; experiment: T cell proliferation (thymidine incorporation) in lymph nodes from peptide immunized mice; assay type: cell-based, mouse; conditions: mice immunized with 100 µg peptide in complete Freund's adjuvant, lymph nodes 14 days later, 72 h culture with titrated peptide
Experimental: Finally we asked whether any of the tight-binding peptides, which also were conserved between mouse and human, could be recognized by peripheral T cells. HLA-DR1 or HLA-DR4 transgenic mice were immunized with 100 µg of several of the extracellular matrix peptides in complete Freund's adjuvant in the flanks and nape of the neck. Draining lymph nodes were collected 14 days later and reactive T cells analyzed by proliferation assay with thymidine incorporation.
HLA-DR1 and HLA-DR4 mice were immunized in the flanks and nape of the neck with 100 micrograms of peptide emulsion in Freund's adjuvant. Two weeks later popliteal and axillary lymph nodes were harvested and tested in proliferation assay. Briefly 6×10^5 cells were seeded in a 96 well plate with or without titrated amount of the immunizing peptide for 72 hours. Thymidine ([…]) was added 18 hours before cell harvesting. Cells were harvested on a Tomtec harvester (Model 94-3-468) and incorporated thymidine counted on a liquid scintillation counter (1450 Microbeta Wallac Trilux).

[3] = target: HLA-DR1 (HLA-DRA*0101,-DRB1*0101) (Homo sapiens, UniProt P01903+P01911, A100R/D57E/F55L/F60I/F76Y/I96L/L162R/M171V/P40L/Q125E/R42F/V115G/Y59C); experiment: Competition fluorescence polarization peptide binding assay, HLA-DR1; conditions: competition with Alexa488-HA peptide 25 nM, HLA-DR1 100 nM, 3 days at 37°C, citrate pH 5/5.5; mean of single fit to triplicate values
[4] = competition with Alexa488-HA peptide 25 nM, HLA-DR4 and HLA-DM 100 nM each, 1 mM DTT, 3 days at 37°C, citrate pH 5/5.5, mean of single fit to triplicate values, read-out: DR4 IC50

Substance | IC50 [1, 4] | IC50 [3] | Proliferative response of draining lymph node T cells to immunizing peptide [2] | IC50 [1]
Ac-DPFRLQSTSQHN [dpFRLQsTsQHn] | 1.3 µM |  | significant proliferation index | 
Ac-EDTFAHLTPTPT [edtFAHLTPTPT] |  | 1.7 µM |  | 
Ac-GALLGAPPPLVPAP [gaLLGAPPPLVpap] | 8.8 µM | 10.8 µM |  | 
Ac-NGVVGPTGPVGAAGP-NH2 [ngvVGPTGPVGAagp] | > 100 µM |  |  | 
Ac-PGALLGAPPPLVPAP [pgaLLGAPPPLVpap] |  |  |  | > 100 µM
MGPMGPRGPPGPA-NH2 [MGPMGPRGPpgpa] | > 100 µM |  |  | 

Now from value to substance, other results behind:

IC50 [1, 4] | IC50 [3] | Substance | Proliferative response of draining lymph node T cells to immunizing peptide [2] | IC50 [1]
4.7 µM | 41.6 µM | Ac-HQVSINNTAVMQRL [hqVSINNTAVMqrl] |  | 
 | 0.42 µM | Ac-KNFASVQGVSLESG [knFASVQGVSLesg] |  | 
> 100 µM | 18 µM | Ac-NGVVGPTGPVGAAGPA-NH2 [ngVVGPTGPVGaagpa] |  | 
> 100 µM | 0.8 µM | Ac-PQGFQGNPGEPGE [pqgFQGNPGEPGe] |  | 
60.1 µM |  | Ac-SPWIDASTAIDA [spWIDASTAIDa] |  | 
79.6 µM | 62.4 µM | MLQGTSSVLLLWG-NH2 [mLQGTsSVLLlwg] |  | 
56.4 µM | 54.6 µM | NYAILRNLQP [nYAILRNLQP] |  | 
